Values after ≈ are worked out from the molar mass of the structure shown. Read-outs that look alike come from different tables or passages of the source.
Assays:
[1] = Pharmacokinetics in plasma and PELF of healthy pigs after intramuscular injection; assay type: in vivo; settings: for T 1/2λ / AUC(0-t) / Cmax / Tmax / MRT last: n = 6; for AUC(0-t) / Cmax / Tmax / MRT last: pig, im; for AUC(0-t): AUC 24h; for MRT last: read-out: MRT 24h
Protocol: (§1) Twenty-four pigs were randomly divided into 4 groups with 3 healthy groups and 1 infected group. […] The infected group was infected with G. parasuis H78 for 3 days.
(§2) Add 3 mL of a mixture of dichloromethane and acetonitrile, and vortex centrifuge for 5 min at 10,000 rpm for 10 min. Remove the supernatant into a 10 mL centrifuge tube. Add 3 mL of dichloromethane and acetonitrile to the residue. Extract once again as described above. Combine the supernatant twice, and dissolve the residue with 1 mL of the initial mobile phase. Vortex to mix. Add 1 mL of n-hexane, remove the n-hexane layer (upper layer) to achieve the purpose of degreasing, and then use a 0.22-μm filter membrane to obtain a sample purification solution.
(§3) A C18 reverse phase column (250 mm × 4.6 mm, i.d., 5 µm, Agilent, Santa Clara, CA, USA) was used for HPLC, which was executed at a detection wavelength of 270 nm at 25 °C. The mobile phase comprised 0.1% trifluoroacetic acid (phase A) and 100% methanol (phase C) with a mobile phase flow rate of 1 mL/min.
(§4) The urea dilution method was used to determine the volume of PELF as described previously. The concentration of urea and PELF were determined by the urease-glutamate dehydrogenase enzymatic method with an automatic biochemical analyzer (SYNCHRON CX4 PRO; Beckman, Brea, CA, USA) at the National Reference Laboratory of Veterinary Drug Residues (Wuhan, China).

[2] = Pharmacokinetics in plasma and PELF of pigs infected with G. parasuis H78 after intramuscular injection; assay type: in vivo; settings: for T 1/2λ: infected group, ADP/SMZ injection 5/25 mg/kg b.w. i.m., n = 6; for Tmax: pig, im
Protocol: as §1, §2, §3, §4

G. parasuis H78 [3] = test: Post-antimicrobial effect (PAE); assay type: cell-based, Glaesserella parasuis
Protocol: (§5) The MIC and MBC of G. parasuis H78 in broth and pulmonary epithelial lining fluid (PELF) were determined by the broth dilution method according to the CLSI M07-A9 standard with some modifications. The MPC of G. parasuis H78 in broth was determined by the agar dilution method recommended by CLSI M07-A9. The post-antimicrobial effect (PAE) was determined by the method of bacterial and drug removal after incubation.

[4] = six-month-old castrated boar ref 22; cited from earlier work
G. parasuis H78 [5] = test: PK-PD integration, sigmoid Emax model on ex vivo time killing in PELF; assay type: cell-based, Glaesserella parasuis; settings: ADP/SMZ injection 5/25 mg/kg b.w. i.m.
Protocol: The association between antimicrobial efficiency and the ex vivo PK-PD parameters of AUC0−24h/MIC ratios was simulated by using the model of Emax inhibitory Sigmoid.

G. parasuis H78 [6] = test: Mutant prevention concentration (MPC), agar dilution; assay type: cell-based, Glaesserella parasuis
Protocol: as §5

[7] = Adverse reactions after single intramuscular injection in pigs; settings: single dose ADP 5, SMZ 25, ADP/SMZ 5/25 mg/kg b.w.
Protocol: as §1
A single dose of 5 mg/kg b.w., 25 mg/kg b.w., and 5/25 mg/kg b.w.

E. coli (ATCC 25922) = test: MIC quality control, agar dilution (CLSI M07-A9); assay type: cell-based; settings: Escherichia coli, ATCC25922, quality control strain
Excerpt: E. coli (ATCC 25922) and chloramphenicol were used as quality control, and the experimental results were only valid when the MIC was within the quality control range.

[8] = PELF, PELF, healthy group, ADP/SMZ injection 5/25 mg/kg b.w. i.m.
[9] = PELF, PELF, healthy pigs, single drug i.m.: ADP 5 mg/kg b.w., SMZ 25 mg/kg b.w.
[10] = plasma, plasma, healthy group, ADP/SMZ injection 5/25 mg/kg b.w. i.m.
[11] = plasma, plasma, healthy pigs, single drug i.m.: ADP 5 mg/kg b.w., SMZ 25 mg/kg b.w.

## COc1cc(Cc2cnc(N)nc2N)cc(OC)c1N(C)C [ADP, Aditoprim]
[1]; LOD 0.05 µg/mL, HPLC
  concentration in PELF after 36 h: below LOD
  concentration in plasma after 24 h: below LOD
[1]; PELF, healthy group, ADP/SMZ injection 5/25 mg/kg b.w. i.m.
  T 1/2λ: 6.05 ± 0.20 h
[1]; PELF, healthy pigs, single drug i.m.: ADP 5 mg/kg b.w., SMZ 25 mg/kg b.w.
  T 1/2λ: 6.42 ± 0.43 h
[1]; [8]
  AUC(0-t): 49100 ± 520 ng·h/mL
  Cmax: 6780 ± 110 ng/mL
  Tmax: 1.95 ± 0.06 h
  MRT last: 6.88 ± 0.11 h
[1]; [9]
  AUC(0-t): 44800 ± 540 ng·h/mL
  Cmax: 6880 ± 140 ng/mL
  Tmax: 2 h
  MRT last: 6.43 ± 0.09 h
[1]; [10]
  AUC(0-t): 7710 ± 260 ng·h/mL
  Cmax: 870 ± 90 ng/mL
  Tmax: 2 h
  MRT last: 7.76 ± 0.26 h
[1]; [11]
  AUC(0-t): 7590 ± 240 ng·h/mL
  Cmax: 920 ± 80 ng/mL
  Tmax: 1 h
  MRT last: 7.63 ± 0.27 h
[1]; plasma, healthy group, ADP/SMZ injection 5/25 mg/kg b.w. i.m.
  T 1/2λ: 7.97 ± 0.81 h
[1]; plasma, healthy pigs, single drug i.m.: ADP 5 mg/kg b.w., SMZ 25 mg/kg b.w.
  T 1/2λ: 8.8 ± 0.53 h
[2]; PELF
  T 1/2λ: 6.48 ± 0.62 h
  Tmax: 1.96 ± 0.05 h
[2]; plasma
  Tmax: 2 h
  T 1/2λ: 8.45 ± 0.61 h
G. parasuis H78 [3]; 1 × MIC, exposure 1 h
  PAE: 0.02 h
G. parasuis H78 [3]; 1 × MIC, exposure 2 h
  PAE: 0.40 h
G. parasuis H78 [3]; 2 × MIC, exposure 1 h
  PAE: 0.11 h
G. parasuis H78 [3]; 2 × MIC, exposure 2 h
  PAE: 0.43 h
G. parasuis H78 [3]; 4 × MIC, exposure 1 h
  PAE: 0.20 h
G. parasuis H78 [3]; 4 × MIC, exposure 2 h
  PAE: 0.48 h
[4]
  apparent distribution volume: > 1.4 L/kg
  elimination half-life: > 2.25 h
G. parasuis H78 [5]; healthy group
  (AUC24h/MIC)ex (E = 0): 32.25 h
  (AUC24h/MIC)ex (E = −3): 113.28 h
  (AUC24h/MIC)ex (E = −4): 221.41 h
  E 0: −4.78 Log10CFU/mL
  EC 50 (AUC0−24h/MIC giving 50% of Emax): 56.4 h
  Emax: 2.07 Log10CFU/mL
  Emax − E0: 6.85 Log10CFU/mL
  N (Hill coefficient): 1.5
G. parasuis H78 [5]; infected group
  (AUC24h/MIC)ex (E = 0): 27.19 h
  (AUC24h/MIC)ex (E = −3): 102.29 h
  (AUC24h/MIC)ex (E = −4): 204.17 h
  E 0: −4.8 Log10CFU/mL
  EC 50 (AUC0−24h/MIC giving 50% of Emax): 48.06 h
  Emax: 2.15 Log10CFU/mL
  Emax − E0: 6.95 Log10CFU/mL
  N (Hill coefficient): 1.41
G. parasuis H78 [6]
  MPC: 20 µg/mL
[7]
  adverse reactions after intramuscular injection: No serious adverse reactions

## Cc1cc(NS(=O)(=O)c2ccc(N)cc2)no1 [SMZ, Sulfamethoxazole, reference compound]
G. parasuis H78 [5]; healthy group
  E 0: −4.4 Log10CFU/mL
  Emax: 2.3 Log10CFU/mL
  Emax − E0: 6.7 Log10CFU/mL
  N (Hill coefficient): 1.56
G. parasuis H78 [5]; infected group
  E 0: −4.55 Log10CFU/mL
  Emax: 2.36 Log10CFU/mL
  N (Hill coefficient): 1.52
[7]
  adverse reactions after intramuscular injection: No serious adverse reactions

## O=C(N[C@H](CO)[C@H](O)c1ccc([N+](=O)[O-])cc1)C(Cl)Cl [chloramphenicol]
E. coli (ATCC 25922)
  MIC: 4 µg/mL (≈ 12.4 µM)

## COc1cc(Cc2cnc(N)nc2N)cc(OC)c1OC [TMP, trimethoprim, reference compound]
[4]
  apparent distribution volume: 1.4 L/kg
  elimination half-life: 2.25 h
